Measurements reported in PubChem BioAssay (NCI).
Several values for one entry are separate records, joined by “and”; a condition that tells them apart may be missing. Equal values may be shown once.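 Dose response: 5 concentrations. Exposure: 48 h. Format: 96-well plates. Endpoint: linear interpolation; highest concentration if not reached. At the GI50, growth is halved. TGI: total growth inhibition.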 Where a SMILES comes first, the peptide text is derived from it. Bridges are numbered along the chain shown (N, C = ends). [ ]: non-standard residue; d: D form. ξ: configuration not given here. ξThr(3R) = C[C@@H](O)C(N)C(=O)O; S5 = C=CCCC[C@](C)(N)C(=O)O

How the values were obtained:
Experiment in all cases: inhibition of tumour cell growth, NCI panel, 48 h
[1] = tested on: SNB-19 CNS
[2] = tested on: CAKI-1 renal
[3] = tested on: COLO 205 colon
[4] = tested on: UO-31 renal
[5] = tested on: SK-MEL-5 melanoma
[6] = tested on: MOLT-4 leukemia
[7] = tested on: PC-3 prostate
[8] = tested on: NCI-H522 lung
[9] = tested on: SF-539 CNS
[10] = tested on: T-47D breast

Cc1ccc(Cl)cc1NC(=O)c1cc2ccccc2cc1O
GI50 [1]: 0.442 µM | TGI [1]: > 40.1 µM | GI50 [2]: 0.219 µM | TGI [2]: 0.921 µM | GI50 [3]: 1.7 µM | TGI [3]: 3.48 µM | GI50 [4]: 0.201 µM | TGI [4]: 1.47 µM | GI50 [5]: 0.277 µM | TGI [5]: 0.824 µM | GI50 [6]: 0.558 µM | TGI [6]: 3.42 µM | GI50 [7]: 0.289 µM | GI50 [8]: 0.231 µM | TGI [8]: 0.719 µM | GI50 [9]: 0.356 µM | TGI [9]: 1.82 µM | GI50 [10]: 1.14 µM | TGI [10]: 5.06 µM

CCCCCC[C@@H](C)Nc1nc2ccccc2c2occc12
GI50 [1]: 17.7 µM | TGI [1]: 50.1 µM | GI50 [2]: 13.6 µM | TGI [2]: 32.1 µM | GI50 [3]: 21.2 µM | TGI [3]: > 100 µM | GI50 [4]: 2.05 µM | TGI [4]: 17.2 µM | GI50 [5]: 2.89 µM | TGI [5]: 18 µM | GI50 [6]: 20.9 µM | TGI [6]: > 100 µM | GI50 [7]: 22.9 µM | TGI [7]: 71.6 µM | GI50 [8]: 1.83 µM | TGI [8]: 13.3 µM | GI50 [9]: 10.5 µM | TGI [9]: 22.5 µM | GI50 [10]: 7.24 µM | TGI [10]: 23.2 µM

O=c1c2ccccc2nc(-c2ccccc2Cl)n1-c1nnc(C(F)(F)F)s1
GI50 [1]: 3.66 µM | TGI [1]: > 100 µM | GI50 [2]: 2.82 µM | TGI [2]: 10.1 µM | GI50 [3]: 3.86 µM | TGI [3]: 21.3 µM | GI50 [4]: 2.75 µM | TGI [4]: 11.6 µM | GI50 [5]: 1.99 µM | TGI [5]: 4.91 µM | GI50 [6]: 3.99 µM | TGI [6]: 20.4 µM | GI50 [7]: 2.76 µM | TGI [7]: 14.1 µM | GI50 [8]: 2.43 µM | TGI [8]: 8.25 µM | GI50 [9]: 3.21 µM | TGI [9]: 13 µM | GI50 [10]: 3.76 µM | TGI [10]: > 100 µM

COc1cccc(/C=C/c2ccnc3ccccc23)c1OC
TGI [1]: > 10 µM | TGI [2]: > 10 µM | TGI [3]: > 10 µM | TGI [4]: > 10 µM | TGI [5]: > 10 µM | TGI [6]: > 10 µM | TGI [7]: > 10 µM | TGI [8]: > 10 µM | TGI [9]: > 10 µM | TGI [10]: > 10 µM

Nc1cc(C(F)(F)F)c(-c2cc(N3CCOCC3)nc(N3CCOCC3)n2)cn1
GI50 [1]: 2.28 µM and 2.71 µM | TGI [1]: > 100 µM | GI50 [2]: 0.441 µM and 0.806 µM | TGI [2]: 4.05 µM and > 24.3 µM | GI50 [3]: 0.629 µM and 1.25 µM | TGI [3]: 2.8 µM and 3.42 µM | GI50 [4]: 0.309 µM and 0.527 µM | GI50 [5]: 0.797 µM and 0.587 µM | TGI [5]: 3.05 µM and 2.56 µM | GI50 [6]: 0.883 µM and 0.814 µM | TGI [6]: > 100 µM | GI50 [7]: 0.44 µM and 0.49 µM | TGI [7]: > 9.49 µM and 6.09 µM | GI50 [8]: 0.504 µM and 0.29 µM | TGI [8]: 3.93 µM and 1.64 µM | GI50 [9]: 0.976 µM and 1.39 µM | TGI [9]: 3.42 µM and 4.35 µM | GI50 [10]: 0.145 µM and 0.273 µM | TGI [10]: 0.77 µM and 1.31 µM

CN(C)Cc1ccc(C(C)(C)C)cc1-c1cc(C(C)(C)C)ccc1CN(C)C
TGI [1]: > 100 µM | TGI [2]: > 100 µM | TGI [3]: 37.9 µM | TGI [4]: > 100 µM | TGI [5]: > 100 µM | TGI [6]: > 100 µM | TGI [7]: > 100 µM | TGI [8]: > 100 µM | TGI [9]: > 100 µM | TGI [10]: > 100 µM

O=C(Nc1cccc(-n2cc(-c3ccncc3)c(-c3ccc(O)c(Cl)c3)n2)c1)c1cc(C(F)(F)F)cc(C(F)(F)F)c1
GI50 [1]: 12.8 µM | TGI [1]: > 50 µM | GI50 [2]: 2.52 µM | TGI [2]: > 50 µM | GI50 [3]: 9.82 µM | TGI [3]: 23.5 µM | GI50 [4]: 4.15 µM | TGI [4]: > 50 µM | GI50 [5]: 4.61 µM | TGI [5]: 16.9 µM | GI50 [6]: 2.88 µM | TGI [6]: > 50 µM | GI50 [7]: 2.17 µM | TGI [7]: > 50 µM | GI50 [8]: 1.56 µM | TGI [8]: 12.3 µM | GI50 [9]: 4.78 µM | TGI [9]: 38.9 µM | GI50 [10]: 2.28 µM | TGI [10]: 30.8 µM

O=C1c2ccccc2C(=O)c2c1ccc1c(=O)n(-c3ccccc3C(F)(F)F)nnc21
GI50 [1]: 2.68 µM | TGI [1]: 31.2 µM | GI50 [2]: 2.77 µM | TGI [2]: > 100 µM | GI50 [3]: 1.83 µM | TGI [3]: 4.28 µM | GI50 [4]: 1.68 µM | TGI [4]: > 100 µM | GI50 [5]: 1.67 µM | TGI [5]: 3.05 µM | GI50 [6]: 1.53 µM | TGI [6]: 8.12 µM | GI50 [7]: 2.2 µM | TGI [7]: > 100 µM | GI50 [8]: 1.81 µM | TGI [8]: 5.71 µM | GI50 [9]: 2.57 µM | TGI [9]: 8.49 µM | GI50 [10]: 1.86 µM | TGI [10]: 6.98 µM

CCN(CC)c1ccc(C2NC(=O)c3ccccc3N2)cc1 (configuration not stated)
TGI [1]: > 100 µM | TGI [2]: > 26.5 µM | TGI [3]: 4.51 µM | TGI [4]: > 100 µM | TGI [5]: > 100 µM | TGI [6]: > 100 µM | TGI [7]: > 100 µM | TGI [8]: > 100 µM | TGI [9]: 8.68 µM | TGI [10]: > 100 µM

O=C(/C=C/C(Cl)(Cl)Cl)Nc1ccc(Cl)cc1
TGI [1]: 32 µM | TGI [2]: 2.02 µM | TGI [3]: 5.16 µM | TGI [4]: 1.91 µM | TGI [5]: 23.5 µM | TGI [6]: 3.28 µM | TGI [7]: 26.5 µM | TGI [8]: 1.43 µM | TGI [9]: 3.97 µM | TGI [10]: 7.84 µM

COc1ccc2nc3cc([N+](=O)[O-])ccc3c(NNc3ccccc3)c2c1
GI50 [1]: 18.2 µM | TGI [1]: 57.1 µM and > 100 µM | TGI [2]: 35.1 µM and > 100 µM | GI50 [3]: 17.1 µM | TGI [3]: 37.5 µM and 29.5 µM | GI50 [4]: 13.1 µM | TGI [4]: 34.3 µM and > 100 µM | GI50 [5]: 13.2 µM | TGI [5]: 27.3 µM and 40.7 µM | GI50 [6]: 12.5 µM | TGI [6]: 65.8 µM and 74.4 µM | GI50 [7]: 10.4 µM | TGI [7]: 40.4 µM and > 100 µM | GI50 [8]: 2.4 µM | TGI [8]: 18.5 µM and 50.9 µM | GI50 [9]: 11.7 µM | TGI [9]: 26.4 µM and 75 µM | GI50 [10]: 10.1 µM | TGI [10]: 35.7 µM and > 100 µM

COc1cc(/C=C/C(=O)/C=C/c2cc3ccc(Cl)cc3n(Cc3ccccc3)c2=O)ccc1O
GI50 [1]: 1.73 µM | TGI [1]: 3.88 µM | GI50 [2]: 2.08 µM | TGI [2]: 4.54 µM | GI50 [3]: 1.97 µM | TGI [3]: 6.25 µM | GI50 [4]: 1.34 µM | TGI [4]: 2.64 µM | GI50 [5]: 1.69 µM | TGI [5]: 3.17 µM | GI50 [6]: 1.89 µM | TGI [6]: > 100 µM | GI50 [7]: 1.92 µM | TGI [7]: 5.6 µM | GI50 [8]: 1.67 µM | TGI [8]: 3.5 µM | GI50 [9]: 1.62 µM | TGI [9]: 3.53 µM | GI50 [10]: 2.02 µM | TGI [10]: 11.5 µM

CCN(CC)CCC(CNc1ccnc2cc(Cl)ccc12)c1ccccc1 (configuration not stated)
GI50 [1]: 16.2 µM | TGI [1]: 74.1 µM | GI50 [2]: 3.52 µM | TGI [2]: 18.5 µM | GI50 [3]: 1.45 µM | TGI [3]: 3.33 µM | GI50 [4]: 2.72 µM | TGI [4]: 14.3 µM | GI50 [5]: 1.69 µM | TGI [5]: 3.07 µM | GI50 [6]: 4.66 µM | TGI [6]: 58.2 µM | GI50 [7]: 13.9 µM | TGI [7]: 69.9 µM | GI50 [8]: 2.58 µM | TGI [8]: 11.7 µM | GI50 [9]: 1.81 µM | TGI [9]: 4.11 µM | GI50 [10]: 2.85 µM | TGI [10]: 8.08 µM

O=CNc1ccc(S(=O)(=O)c2ccc(NC=O)cc2)cc1
TGI [1]: > 100 µM | TGI [2]: > 100 µM | TGI [3]: > 100 µM | TGI [4]: > 100 µM | TGI [5]: > 100 µM | TGI [6]: > 100 µM | TGI [7]: > 100 µM | TGI [8]: > 100 µM | TGI [9]: > 100 µM | TGI [10]: > 100 µM

CC(=O)N[C@H](C(=O)N[C@@H](CCCNC(=N)N)C(=O)N[C@@H](CCCCN)C(=O)N[C@@H](CCCNC(=N)N)C(=O)NC(C(=O)N[C@@H](CC(C)C)C(=O)N[C@@H](CCCNC(=N)N)C(=O)N[C@@]1(C)CCC/C=C\CCC[C@@](C)(C(=O)N[C@@H](CCCNC(=N)N)C(=O)N[C@@H](CCC(=O)O)C(=O)N[C@@H](CC(C)C)C(=O)N[C@H](C(=O)N[C@@H](CCC(=O)O)C(N)=O)C(C)C)NC(=O)[C@H](CCC(N)=O)NC(=O)[C@H](CC(C)C)NC(=O)[C@H](CC(C)C)NC1=O)[C@@H](C)O)C(C)C (stereo partly drawn) (Ac-VRKR[ξThr(3R)]LR[S5]LLQ[S5]RELVE-NH2; staple (Z) 8-12)
GI50 [1]: 7.94 µM | TGI [1]: 17.9 µM | GI50 [2]: 3.79 µM | TGI [2]: 10.4 µM | GI50 [3]: 2.41 µM | TGI [3]: 9.89 µM | GI50 [4]: 9.2 µM | TGI [4]: 17.5 µM | GI50 [5]: 2.01 µM | TGI [5]: 8.43 µM | GI50 [6]: 9.85 µM | TGI [6]: 22.9 µM | GI50 [7]: 7.76 µM | TGI [7]: 15.3 µM | GI50 [8]: 5.75 µM | TGI [8]: 16.4 µM | GI50 [9]: 2.1 µM | TGI [9]: 7.54 µM | GI50 [10]: 1.05 µM | TGI [10]: 2.68 µM
